According to PubChem BioAssay (NCI):
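48-hour exposure; five concentrations; linearly interpolated endpoints. TGI: total growth inhibition.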

Experiments:
Experiment in all cases: NCI tumour cell line growth inhibition, 48 h
COLO 205 colon = tested on: COLO 205 colon
SK-MEL-5 melanoma = tested on: SK-MEL-5 melanoma
A498 renal = tested on: A498 renal
NCI/ADR-RES ovarian = tested on: NCI/ADR-RES ovarian
MDA-N = tested on: MDA-N
OVCAR-4 ovarian = tested on: OVCAR-4 ovarian
MALME-3M melanoma = tested on: MALME-3M melanoma
RXF 393 renal = tested on: RXF 393 renal
M14 melanoma = tested on: M14 melanoma
HT29 colon = tested on: HT29 colon
OVCAR-3 ovarian = tested on: OVCAR-3 ovarian
NCI-H522 lung = tested on: NCI-H522 lung
NCI-H23 lung = tested on: NCI-H23 lung
SNB-75 CNS = tested on: SNB-75 CNS
NCI-H460 lung = tested on: NCI-H460 lung
SK-MEL-2 melanoma = tested on: SK-MEL-2 melanoma
TK-10 renal = tested on: TK-10 renal
OVCAR-5 ovarian = tested on: OVCAR-5 ovarian
SW-620 colon = tested on: SW-620 colon
T-47D breast = tested on: T-47D breast
SR leukemia = tested on: SR leukemia
UACC-257 melanoma = tested on: UACC-257 melanoma
SF-268 CNS = tested on: SF-268 CNS
HL-60(TB) leukemia = tested on: HL-60(TB) leukemia
MCF7 breast = tested on: MCF7 breast
MDA-MB-435 = tested on: MDA-MB-435
EKVX NSCLC = tested on: EKVX NSCLC
LOX IMVI melanoma = tested on: LOX IMVI melanoma
HCT-116 colon = tested on: HCT-116 colon
DU-145 prostate = tested on: DU-145 prostate
PC-3 prostate = tested on: PC-3 prostate
SF-295 CNS = tested on: SF-295 CNS
KM12 colon = tested on: KM12 colon
ACHN renal = tested on: ACHN renal
CAKI-1 renal = tested on: CAKI-1 renal
SNB-19 CNS = tested on: SNB-19 CNS
UACC-62 melanoma = tested on: UACC-62 melanoma
HOP-62 NSCLC = tested on: HOP-62 NSCLC
786-0 renal = tested on: 786-0 renal
SN12C renal = tested on: SN12C renal
HCT-15 colon = tested on: HCT-15 colon
SK-MEL-28 melanoma = tested on: SK-MEL-28 melanoma
U251 CNS = tested on: U251 CNS
UO-31 renal = tested on: UO-31 renal
OVCAR-8 ovarian = tested on: OVCAR-8 ovarian
SF-539 CNS = tested on: SF-539 CNS
HOP-92 NSCLC = tested on: HOP-92 NSCLC
K-562 leukemia = tested on: K-562 leukemia
A549 NSCLC = tested on: A549 NSCLC
HCC-2998 colon = tested on: HCC-2998 colon
SK-OV-3 ovarian = tested on: SK-OV-3 ovarian
IGROV1 ovarian = tested on: IGROV1 ovarian
MOLT-4 leukemia = tested on: MOLT-4 leukemia
RPMI-8226 leukemia = tested on: RPMI-8226 leukemia
BT-549 breast = tested on: BT-549 breast
HS 578T breast = tested on: HS 578T breast
MDA-MB-231 breast = tested on: MDA-MB-231 breast

Measured: TGI

OC1(c2ccccc2)CCCCCCCCC(O)(c2ccccc2)CCCCCCCC1 (stereo not drawn)
> 100 µM: COLO 205 colon | SK-MEL-5 melanoma | A498 renal | NCI/ADR-RES ovarian | MDA-N | OVCAR-4 ovarian | MALME-3M melanoma | RXF 393 renal | M14 melanoma | HT29 colon | OVCAR-3 ovarian | NCI-H522 lung | NCI-H23 lung | SNB-75 CNS | NCI-H460 lung | SK-MEL-2 melanoma | TK-10 renal | OVCAR-5 ovarian | SW-620 colon | T-47D breast | SR leukemia | UACC-257 melanoma | SF-268 CNS | HL-60(TB) leukemia | MCF7 breast | MDA-MB-435 | EKVX NSCLC | LOX IMVI melanoma | HCT-116 colon | DU-145 prostate | PC-3 prostate | SF-295 CNS | KM12 colon | ACHN renal | CAKI-1 renal | SNB-19 CNS | UACC-62 melanoma | HOP-62 NSCLC | 786-0 renal | SN12C renal | HCT-15 colon | SK-MEL-28 melanoma | U251 CNS | UO-31 renal | OVCAR-8 ovarian | SF-539 CNS | HOP-92 NSCLC | K-562 leukemia | A549 NSCLC | HCC-2998 colon | SK-OV-3 ovarian | IGROV1 ovarian

C/C=C\C(CC(=O)O)CN1CCC2=C(C1)C(S(=O)(=O)C(F)(F)F)c1ccccc12 (stereo not drawn)
> 100 µM: COLO 205 colon | SK-MEL-5 melanoma | A498 renal | NCI/ADR-RES ovarian | MDA-N | OVCAR-4 ovarian | MALME-3M melanoma | RXF 393 renal | M14 melanoma | MOLT-4 leukemia | HT29 colon | OVCAR-3 ovarian | NCI-H522 lung | NCI-H23 lung | SNB-75 CNS | NCI-H460 lung | SK-MEL-2 melanoma | OVCAR-5 ovarian | SW-620 colon | SR leukemia | UACC-257 melanoma | RPMI-8226 leukemia | SF-268 CNS | MCF7 breast | BT-549 breast | MDA-MB-435 | EKVX NSCLC | HCT-116 colon | DU-145 prostate | PC-3 prostate | SF-295 CNS | KM12 colon | HS 578T breast | ACHN renal | CAKI-1 renal | SNB-19 CNS | UACC-62 melanoma | HOP-62 NSCLC | 786-0 renal | HCT-15 colon | SK-MEL-28 melanoma | U251 CNS | UO-31 renal | OVCAR-8 ovarian | HOP-92 NSCLC | K-562 leukemia | A549 NSCLC | HCC-2998 colon | MDA-MB-231 breast | SK-OV-3 ovarian | IGROV1 ovarian
